Data: PMC2896556 (Biochemistry, 2010)
Like-named read-outs stand apart in the source and are kept apart here.

Assays:
RT subunit interactions = conditions: cited from earlier work
p66/p66 = conditions: cited from earlier work
p51/p51 = conditions: cited from earlier work
p66 = p66 (Human immunodeficiency virus type 1 group M subtype B, UniProt P04585); design: species or system HIV-1; conditions: 3 μM p66, 25 μM NNRTI, 1 wk
RT dimerization [1] = conditions: yeast-two hybrid; cited from earlier work
RT dimerization [2] = conditions: urea denaturation; cited from earlier work

Row | SMILES | effect on RT subunit interactions (RT subunit interactions) | also measured
1 | CC(C)(C)c1ccc(C(=O)NN=Cc2c(O)ccc3ccccc23)cc1 [BBNH, N-(4-tert-butylbenzoyl)-2-hydroxy-1-naphthaldehyde hydrazone] | weaken subunit interactions | 
2 | CC(C)(C)c1ccc(C(=O)NN=Cc2ccccc2O)cc1 [BBSH, (4-tert-butylbenzoyl)-2-hydroxy-1-salicylyl hydrazone] | weaken subunit interactions | 
3 | CCn1c(=O)c(C)cn([C@@H]2O[C@H](CO[Si](C)(C)C(C)(C)C)C3(OS(=O)(=O)C=C3N)[C@H]2O[Si](C)(C)C(C)(C)C)c1=O (stereo partly drawn) [TSAOe^3T, 1-(spiro{4”-amino-2”,2”-dioxo-1”,2”-oxathiole-5”,3′-[2′,5′-bis-O-(tert-butyldimethylsilyl)-β-D-ribofuranosyl]})-3-ethylthymine] | weaken subunit interactions | 
4 | CC(C)Nc1cccnc1N1CCN(C(=O)c2cc3cc(NS(C)(=O)=O)ccc3[nH]2)CC1 [delavirdine] | little or no effect | 
5 | O=C1Nc2ccc(Cl)cc2[C@@](C#CC2CC2)(C(F)(F)F)O1 [efavirenz] | enhance subunit interactions | enhancement of dimer formation (p66/p66): 50 fold; enhancement of dimer formation (p51/p51): 600 fold
6 | Cc1ccnc2c1NC(=O)c1cccnc1N2C1CC1 [nevirapine] | enhance subunit interactions | effect on p66 dimerization (p66): enhance dimerization; effect on RT dimerization (RT dimerization [1]): small enhancement of dimerization; effect on RT dimerization (RT dimerization [2]): no effect
